Measurements: patent publication US20060020110A1, “Synthetic peptides that bind to the hepatitis B virus core and E antigens” (priority 2000, published 2006)

Tests used:
HBcAg [1] = target: T1, HBcAg (Hepatitis B virus genotype D subtype ayw, UniProt P03146); settings: for OD at 405 nm to indicated antigen: HBcAg 0.2 μg/well / OD at 405 nm to indicated antigen: HBcAg 2 μg/well: support-bound peptide; for OD at 490 nm, HBcAg binding to support-bound amino terminal deletion peptides: HBcAg added at 5 μg/ml
Text: (§1) One approach to rational drug design involves sequential amino acid deletion of a known binding partner starting from either the amino or carboxy termini. Amino-terminal deletions of the binding partners of SEQ. ID. Nos. 5 and 17 were made and these peptide fragments were joined to a support and analyzed for the ability to bind HBcAg. […] ID. […] The amino-terminal deletions of the peptide of SEQ. ID. […] The amino-terminal deletion products of the peptide of SEQ. ID. […] ID.
To determine whether a candidate binding partner bound to HBcAg and/or HbeAg, a multimeric support-based binding assay was performed. Accordingly, synthetic peptides corresponding to the VH and VL domains of the sequenced mAbs were passively adsorbed to 96 well microplates in serial dilutions starting at 200 μg/ml. The peptide coated plates were then incubated with HBcAg and HBeAg serially diluted in PBS-GT. The amount of HBcAg and HBeAg bound by the peptides was then detected using a mAb directed to an epitope common to HBcAg and HBeAg (See Sällberg et al., J General Virology 74:1335-1340 (1993), herein expressly incorportaed by reference in its entirety) diluted 1:3000 in PBS-GT. The quantity of bound mAb was determined by addition by peroxidase labeled rabbit anti-mouse IgG (P260, Dako A S, Denmark). The plates were developed by incubation with ortho-phenylene-diamine (Sigma) and the absorbance at 492 nm was evaluated.
The converse of an aspect of this experiment was also performed. That is, various dilutions of support-bound binding partners (SEQ. ID. Nos. 5, 16, 17, 28, and 29) were contacted with 10 μg/ml of HBcAg and binding was evaluated. ID.

HBcAg [2] = target: T1, HBcAg; settings: for OD at 490 nm, bound peptide SEQ. ID. No. 74: HBcAg coated 1 μg/ml, 5 μg SEQ. ID. No. 74 + 5 μg HBcAg peptide, no inhibitor OD 1.454; for Std. Deviation from the mean: deviation of the OD from the mean OD of all peptides; for Effect on binding of peptide SEQ. ID. No. 74 to HBcAg (in words): 5 μg HBcAg peptide + 5 μg SEQ. ID. No. 74, triplicate
Experimental: In this experiment, microplates were coated overnight with 1 μg/ml HBcAg and, subsequently, a 100 μl mixture containing 5 μg of the peptide […] […] The HBcAg peptides were approximately 20 amino acids in length and corresponded to regions of HBcAg spanning amino acid residues 11-183. The experiment was performed in triplicate.

mAb specific for HSV gG2 = test: gG2 mAb binding to fusion peptide on solid phase; settings: for gG2 mAb binding to indicated antigen on solid phase: fusion peptide: no addition of fusion peptide in solution
Text: (§2) ID. […] The specificity exchangers provided in SEQ. ID. […] Similarly, the specificity exchangers provided in SEQ. ID.

HBcAg [3] = target: T1, HBcAg; settings: fusion peptide in solution 20 μg/well
Experimental: To evaluate the efficacy of the specificity exchangers described above, several binding assays using a mAb specific for HSV gG2 were conducted. In one assay, the various specificity exchangers were coated onto microtiterplates and were bound with the mAb specific for HSV gG2. […] ID. […] In another assay, HBcAg was coated onto microtiter plates, specificity exchanger was added (20 μg/well), and the binding of the mAb specific for HSV gG2 was determined. […] ID. […] In another binding assay, HBeAg was coated onto microtiter plates, specificity exchanger was added (20 μg/well), and the binding of the mAb specific for HSV gG2 was determined. […] ID. […] The characterization assays used to evaluate binding partners can also be used and/or modified for the analysis of the specificity exchangers.

HBeAg = target: T2, HBeAg (Hepatitis B virus genotype D subtype ayw, UniProt P0C573); test: Redirection of HSV gG2 mAb to HBeAg on solid phase by fusion peptide in solution; format: binding; settings: fusion peptide in solution 20 μg/well
T2 construct: containing nine residues of pre-core and the 150 first residues of HBcAg; made in house
Text: as §2

HBcAg [4] = target: T1, HBcAg; settings: peptide added prior to addition of mAb; uninhibited control mean OD 0.871
Text: as §1
Variations of the characterization assays described above include competitive binding assays. […] Initial experiments were conducted by contacting binding partner to HBcAg prior to introducing the antibody. […] ID. […] ID. […] ID. […] ID. […] ID. […] ID.

T1 sequence (P03146 whole entry, the tested form may be a part): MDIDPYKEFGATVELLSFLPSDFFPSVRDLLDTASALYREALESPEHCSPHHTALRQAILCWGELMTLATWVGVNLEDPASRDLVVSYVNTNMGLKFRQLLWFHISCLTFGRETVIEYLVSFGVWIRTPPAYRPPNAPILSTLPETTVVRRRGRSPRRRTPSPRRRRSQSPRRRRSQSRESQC
T2 sequence (P0C573 21-179): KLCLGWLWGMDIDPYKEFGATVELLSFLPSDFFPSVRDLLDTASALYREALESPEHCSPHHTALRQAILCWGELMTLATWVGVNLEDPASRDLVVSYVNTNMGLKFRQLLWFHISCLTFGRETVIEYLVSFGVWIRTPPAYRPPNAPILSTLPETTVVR

QLNSLTSEDSAVYYCARGKG (Synthetically prepared amino acid sequence) [Peptide 32]
OD at 405 nm to indicated antigen: HBcAg 0.2 μg/well (HBcAg [1]): 0.121 | OD at 405 nm to indicated antigen: HBcAg 2 μg/well (HBcAg [1]): 0.528

CWGELMTLATWVGVNLEDPA [SEQ. ID. No. 101]
OD at 490 nm, bound peptide SEQ. ID. No. 74 (HBcAg [2]): 1.395 | Std. Deviation from the mean (HBcAg [2]): 0.712

ALESPEHCSPHHTALRQAIL [SEQ. ID. No. 99]
OD at 490 nm, bound peptide SEQ. ID. No. 74 (HBcAg [2]): 1.372 | Std. Deviation from the mean (HBcAg [2]): 0.665

ELTRLTSEDSAVYFCARGDY (Synthetically prepared amino acid sequence) [Peptide 9]
OD at 405 nm to indicated antigen: HBcAg 0.2 μg/well (HBcAg [1]): 0.195 | OD at 405 nm to indicated antigen: HBcAg 2 μg/well (HBcAg [1]): 0.574

SVSTSSYSYMHWY [SEQ. ID. No. 59]
OD at 490 nm, HBcAg binding to support-bound amino terminal deletion peptides (HBcAg [1]): 0.305

VSTSSYSYMHWY [SEQ. ID. No. 60]
OD at 490 nm, HBcAg binding to support-bound amino terminal deletion peptides (HBcAg [1]): 0.369

SRDLVVSYVNTNMGLKFRQL [SEQ. ID. No. 103]
Effect on binding of peptide SEQ. ID. No. 74 to HBcAg (in words) (HBcAg [2]): consistently reduced the binding | OD at 490 nm, bound peptide SEQ. ID. No. 74 (HBcAg [2]): 0.386 | Std. Deviation from the mean (HBcAg [2]): −1.323

VKLSCKASGYIFTSGGPEEFE [SEQ. ID. No. 76]
gG2 mAb binding to indicated antigen on solid phase: fusion peptide (mAb specific for HSV gG2): 0.018 | gG2 mAb binding to indicated antigen on solid phase: HBcAg (HBcAg [3]): 0.025 | gG2 mAb binding to indicated antigen on solid phase: HBeAg (HBeAg): 0.024

ASGYIFTS [SEQ. ID. No. 50]
OD at 490 nm, HBcAg binding to support-bound amino terminal deletion peptides (HBcAg [1]): 0.407 | OD at 490 nm, mAb 4-2 binding to HBcAg (HBcAg [4]): 0.920

SVKLSCKASGYIFTS [SEQ. ID. No. 43]
OD at 490 nm, HBcAg binding to support-bound amino terminal deletion peptides (HBcAg [1]): 3.364 | OD at 490 nm, mAb 4-2 binding to HBcAg (HBcAg [4]): 0.175

CKASGYIFTS [SEQ. ID. No. 48]
OD at 490 nm, HBcAg binding to support-bound amino terminal deletion peptides (HBcAg [1]): 0.255 | OD at 490 nm, mAb 4-2 binding to HBcAg (HBcAg [4]): 0.851

VKLSCKASGYIFTS [SEQ. ID. No. 44]
OD at 490 nm, HBcAg binding to support-bound amino terminal deletion peptides (HBcAg [1]): 3.703 | OD at 490 nm, mAb 4-2 binding to HBcAg (HBcAg [4]): 0.152

SDFFPSVRDLLDTASALYRE [SEQ. ID. No. 97]
OD at 490 nm, bound peptide SEQ. ID. No. 74 (HBcAg [2]): 1.576 | Std. Deviation from the mean (HBcAg [2]): 1.077

CKASGYIFTSYDIDWVRQTP (Synthetically prepared amino acid sequence) [Peptide 3]
OD at 405 nm to indicated antigen: HBcAg 0.2 μg/well (HBcAg [1]): 0.187 | OD at 405 nm to indicated antigen: HBcAg 2 μg/well (HBcAg [1]): 0.525

LVTVSAAKTTPPSVYPLVPV (Synthetically prepared amino acid sequence) [Peptide 35]
OD at 405 nm to indicated antigen: HBcAg 0.2 μg/well (HBcAg [1]): 0.198 | OD at 405 nm to indicated antigen: HBcAg 2 μg/well (HBcAg [1]): 0.59

AYRPPNAPILSTLPETTVVR [SEQ. ID. No. 108]
OD at 490 nm, bound peptide SEQ. ID. No. 74 (HBcAg [2]): 1.564 | Std. Deviation from the mean (HBcAg [2]): 1.052

QSVSTSSYSYMHWY [SEQ. ID. No. 58]
OD at 490 nm, HBcAg binding to support-bound amino terminal deletion peptides (HBcAg [1]): 0.282

VKLSCKASGYIFTSHRGGPEE [SEQ. ID. No. 75]
gG2 mAb binding to indicated antigen on solid phase: fusion peptide (mAb specific for HSV gG2): 0.213 | Binding of mAb specific for HSV gG2 to coated specificity exchanger (in words) (mAb specific for HSV gG2; specificity exchanger coated onto microtiterplates): appreciably bound the mAb | gG2 mAb binding to indicated antigen on solid phase: HBcAg (HBcAg [3]): 0.037 | gG2 mAb binding to indicated antigen on solid phase: HBeAg (HBeAg): 0.032

TNMGLKFRQLLWFHISCLTF [SEQ. ID. No. 104]
Effect on binding of peptide SEQ. ID. No. 74 to HBcAg (in words) (HBcAg [2]): consistently reduced the binding | OD at 490 nm, bound peptide SEQ. ID. No. 74 (HBcAg [2]): 0.058 | Std. Deviation from the mean (HBcAg [2]): −1.984

SQSVSTSSYSYMHWY [SEQ. ID. No. 57]
OD at 490 nm, HBcAg binding to support-bound amino terminal deletion peptides (HBcAg [1]): 0.310

CRASQSVSTSSYSYMHWY [SEQ. ID. No. 54]
OD at 490 nm, HBcAg binding to support-bound amino terminal deletion peptides (HBcAg [1]): 1.415

PGASVKLSCKASGYIFTS [SEQ. ID. No. 40]
OD at 490 nm, HBcAg binding to support-bound amino terminal deletion peptides (HBcAg [1]): 1.722 | OD at 490 nm, mAb 4-2 binding to HBcAg (HBcAg [4]): 0.182

SGYIFTS [SEQ. ID. No. 51]
OD at 490 nm, HBcAg binding to support-bound amino terminal deletion peptides (HBcAg [1]): 0.389 | OD at 490 nm, mAb 4-2 binding to HBcAg (HBcAg [4]): 0.887

YDIDWVRQTPEQGLEWIGWI (Synthetically prepared amino acid sequence) [Peptide 4]
OD at 405 nm to indicated antigen: HBcAg 0.2 μg/well (HBcAg [1]): 0.202 | OD at 405 nm to indicated antigen: HBcAg 2 μg/well (HBcAg [1]): 0.551
